Measured values as given in PubChem BioAssay (NCI).
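Test compounds were applied to cells in 96-well plates for 48 hours at 5 doses. GI50 marks 50% less growth. TGI: total growth inhibition.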

What was measured:
Assay in all cases: NCI-60 cell line screen, 48 h
[1] = tested on: 786-0 renal
[2] = tested on: A498 renal
[3] = tested on: A549 NSCLC
[4] = tested on: ACHN renal
[5] = tested on: BT-549 breast
[6] = tested on: CAKI-1 renal
[7] = tested on: CCRF-CEM leukemia
[8] = tested on: COLO 205 colon
[9] = tested on: DLD-1 colon
[10] = tested on: DMS 114 small cell lung
[11] = tested on: DMS 273 small cell lung
[12] = tested on: DU-145 prostate
[13] = tested on: EKVX NSCLC
[14] = tested on: HCC-2998 colon
[15] = tested on: HCT-116 colon
[16] = tested on: HCT-15 colon
[17] = tested on: HL-60(TB) leukemia
[18] = tested on: HOP-18 NSCLC
[19] = tested on: HOP-62 NSCLC
[20] = tested on: HOP-92 NSCLC
[21] = tested on: HS 578T breast
[22] = tested on: HT29 colon
[23] = tested on: IGROV1 ovarian
[24] = tested on: K-562 leukemia
[25] = tested on: KM12 colon
[26] = tested on: KM20L2 colon
[27] = tested on: LOX IMVI melanoma
[28] = tested on: LXFL 529 NSCLC
[29] = tested on: M14 melanoma
[30] = tested on: M19-MEL melanoma
[31] = tested on: MALME-3M melanoma
[32] = tested on: MDA-MB-435
[33] = tested on: MOLT-4 leukemia
[34] = tested on: NCI-H226 lung
[35] = tested on: NCI-H23 lung
[36] = tested on: NCI-H460 lung
[37] = tested on: NCI-H522 lung
[38] = tested on: OVCAR-3 ovarian
[39] = tested on: OVCAR-4 ovarian
[40] = tested on: OVCAR-5 ovarian
[41] = tested on: OVCAR-8 ovarian
[42] = tested on: RPMI-8226 leukemia
[43] = tested on: RXF 393 renal
[44] = tested on: SF-268 CNS
[45] = tested on: SF-295 CNS
[46] = tested on: SF-539 CNS
[47] = tested on: SK-MEL-2 melanoma
[48] = tested on: SK-MEL-28 melanoma
[49] = tested on: SK-MEL-5 melanoma
[50] = tested on: SK-OV-3 ovarian
[51] = tested on: SN12C renal
[52] = tested on: SNB-19 CNS
[53] = tested on: SNB-75 CNS
[54] = tested on: SNB-78 CNS
[55] = tested on: SR leukemia
[56] = tested on: SW-620 colon
[57] = tested on: T-47D breast
[58] = tested on: TK-10 renal
[59] = tested on: U251 CNS
[60] = tested on: UACC-257 melanoma
[61] = tested on: UACC-62 melanoma
[62] = tested on: UO-31 renal
[63] = tested on: XF 498 CNS
[64] = tested on: RXF-631 renal
[65] = tested on: MCF7 breast
[66] = tested on: MDA-MB-231 breast
[67] = tested on: NCI/ADR-RES ovarian
[68] = tested on: PC-3 prostate

`C=C1CC2OC2(C(=O)O[C@H]2CCC3[C@@H]4CCC5=CC(=O)CC[C@]5(C)C4CC[C@@]32C)C1=O` (some centres not stated) was tested, and the TGI [1] was 4.83 µM, the TGI [2] was 30.6 µM and the TGI [3] was 43 µM. The TGI [4] was 16.2 µM, the TGI [5] was 41.9 µM and the TGI [6] was 25 µM. It also gave a TGI [7] of 12.7 µM, a TGI [8] of 15.5 µM and a TGI [9] of 16.5 µM. The TGI [10] was 10.4 µM, the TGI [11] was 9.15 µM and the TGI [12] was 32.9 µM. For the same compound, the TGI [13] was 48 µM, the TGI [14] was 74.5 µM and the TGI [15] was 13.8 µM. The TGI [16] was 23.1 µM, the TGI [17] was 3.93 µM and the TGI [18] was 12.7 µM. The TGI [19] was 44.4 µM, the TGI [20] was 23.5 µM and the TGI [21] was 45.1 µM. The TGI [22] was 24.3 µM, the TGI [23] was 25.6 µM and the TGI [24] was 7.03 µM. It also gave a TGI [25] of 32 µM, a TGI [26] of 16.2 µM and a TGI [27] of 21.1 µM. It also gave a TGI [28] of 6.08 µM, a TGI [29] of 16.6 µM and a TGI [30] of 31.7 µM. It also gave a TGI [31] of 16.5 µM, a TGI [32] of 48.7 µM and a TGI [33] of 5.96 µM. For the same compound, the TGI [34] was 55.5 µM, the TGI [35] was 27.3 µM and the TGI [36] was 28.9 µM. For the same compound, the TGI [37] was 8 µM, the TGI [38] was 21.8 µM and the TGI [39] was 18.4 µM. It also gave a TGI [40] of 38.4 µM, a TGI [41] of 45.1 µM and a TGI [42] of 5.79 µM. It also gave a TGI [43] of 10.9 µM, a TGI [44] of 18.2 µM and a TGI [45] of 42.8 µM. The TGI [46] was 18.1 µM, the TGI [47] was 15.1 µM and the TGI [48] was 17.8 µM. It also gave a TGI [49] of 27.6 µM, a TGI [50] of 38.8 µM and a TGI [51] of 13.9 µM. The TGI [52] was 36.3 µM, the TGI [53] was 33.9 µM and the TGI [54] was 19.5 µM. It also gave a TGI [55] of 7.65 µM, a TGI [56] of 11.8 µM and a TGI [57] of 14.2 µM. The TGI [58] was 15.1 µM, the TGI [59] was 21.2 µM and the TGI [60] was 18.3 µM. It also gave a TGI [61] of 28.7 µM, a TGI [62] of 15.4 µM and a TGI [63] of 9.92 µM.

`C=CCc1cc(OC)c2c(c1)C(O)CC(c1ccccc1)O2` (configuration not stated) was tested, and the TGI [1] was > 100 µM, the TGI [3] was > 100 µM and the TGI [4] was > 100 µM. The TGI [6] was > 100 µM, the TGI [7] was > 100 µM and the TGI [8] was > 100 µM. The TGI [9] was > 100 µM, the TGI [10] was > 100 µM and the TGI [11] was > 100 µM. For the same compound, the TGI [13] was > 100 µM, the TGI [14] was > 100 µM and the TGI [15] was > 100 µM. For the same compound, the TGI [16] was > 100 µM, the TGI [17] was > 100 µM and the TGI [18] was > 100 µM. The TGI [19] was > 100 µM, the TGI [20] was > 100 µM and the TGI [22] was > 100 µM. The TGI [23] was > 100 µM, the TGI [24] was > 100 µM and the TGI [25] was > 100 µM. For the same compound, the TGI [26] was > 100 µM, the TGI [28] was > 100 µM and the TGI [29] was > 100 µM. For the same compound, the TGI [30] was > 100 µM, the TGI [31] was > 100 µM and the TGI [33] was > 100 µM. The TGI [34] was > 100 µM, the TGI [35] was > 100 µM and the TGI [36] was > 100 µM. For the same compound, the TGI [37] was > 100 µM, the TGI [38] was > 100 µM and the TGI [39] was > 100 µM. For the same compound, the TGI [40] was > 100 µM, the TGI [41] was > 100 µM and the TGI [64] was > 100 µM. For the same compound, the TGI [44] was > 100 µM, the TGI [45] was > 100 µM and the TGI [46] was > 100 µM. The TGI [47] was > 100 µM, the TGI [48] was > 100 µM and the TGI [49] was > 100 µM. The TGI [50] was > 100 µM, the TGI [51] was > 100 µM and the TGI [52] was > 100 µM. For the same compound, the TGI [53] was > 100 µM, the TGI [54] was > 100 µM and the TGI [55] was > 100 µM. For the same compound, the TGI [56] was > 100 µM, the TGI [58] was > 100 µM and the TGI [59] was > 100 µM. The TGI [60] was > 100 µM, the TGI [61] was > 100 µM and the TGI [62] was > 100 µM.

With `C[C@]12CCC3[C@@H](CC[C@@H]4c5nonc5CC[C@]34C)C1CCC(=O)N2` (some centres not stated) the TGI [1] was > 100 µM, the GI50 [2] was > 88.8 µM and the TGI [2] was > 100 µM. The TGI [3] was > 100 µM, the TGI [4] was > 100 µM and the TGI [6] was > 100 µM. For the same compound, the TGI [7] was > 100 µM, the TGI [8] was > 100 µM and the TGI [11] was > 100 µM. For the same compound, the GI50 [12] was > 100 µM, the TGI [12] was > 100 µM and the TGI [13] was > 100 µM. For the same compound, the GI50 [14] was > 100 µM, the TGI [14] was > 100 µM and the TGI [15] was > 100 µM. The TGI [16] was > 100 µM, the TGI [17] was > 100 µM and the TGI [18] was > 100 µM. The TGI [19] was > 100 µM, the GI50 [20] was 40.4 µM and the TGI [20] was > 95.1 µM. For the same compound, the GI50 [21] was > 100 µM, the TGI [21] was > 100 µM and the TGI [22] was > 100 µM. For the same compound, the TGI [23] was > 100 µM, the TGI [24] was > 100 µM and the TGI [25] was > 100 µM. The TGI [26] was > 100 µM, the TGI [27] was > 100 µM and the TGI [28] was > 100 µM. The TGI [29] was > 100 µM, the TGI [30] was > 100 µM and the TGI [31] was > 100 µM. The GI50 [65] was > 100 µM, the TGI [65] was > 100 µM and the GI50 [66] was > 100 µM. For the same compound, the TGI [66] was > 100 µM, the GI50 [32] was > 100 µM and the TGI [32] was > 100 µM. The GI50 [33] was > 59.7 µM, the TGI [33] was > 100 µM and the TGI [34] was > 100 µM. The TGI [35] was > 100 µM, the TGI [36] was > 100 µM and the TGI [37] was > 100 µM. The GI50 [67] was > 100 µM, the TGI [67] was > 100 µM and the TGI [38] was > 100 µM. For the same compound, the TGI [39] was > 100 µM, the TGI [40] was > 100 µM and the TGI [41] was > 100 µM. The GI50 [68] was 68.3 µM, the TGI [68] was > 100 µM and the TGI [42] was > 100 µM. For the same compound, the TGI [43] was > 100 µM, the TGI [64] was > 100 µM and the TGI [44] was > 100 µM. The TGI [45] was > 100 µM, the TGI [46] was > 100 µM and the TGI [47] was > 100 µM. For the same compound, the TGI [48] was > 100 µM, the TGI [49] was > 100 µM and the TGI [50] was > 100 µM. The TGI [51] was > 100 µM, the TGI [52] was > 100 µM and the GI50 [53] was 35.2 µM. For the same compound, the TGI [53] was > 100 µM, the TGI [54] was > 100 µM and the GI50 [55] was > 100 µM. The TGI [55] was > 100 µM, the TGI [56] was > 100 µM and the GI50 [57] was > 100 µM. For the same compound, the TGI [57] was > 100 µM, the TGI [58] was > 100 µM and the TGI [59] was > 100 µM. For the same compound, the TGI [60] was > 100 µM, the GI50 [61] was > 84 µM and the TGI [61] was > 100 µM. The TGI [62] was > 100 µM and the TGI [63] was > 100 µM.
